{"source": "paper PMC9945863", "about": "“Pyridine based dual binding site aromatase (CYP19A1) inhibitors” (RSC Medicinal Chemistry, 2023)", "key": {"Aromatase (CYP19A1)": {"target": "T1, Aromatase (CYP19A1) (Homo sapiens, UniProt P11511)", "T1 construct": "placental choriocarcinoma JEG-3 cells, known to have high aromatase activity; host or cells: JEG-3", "T1 sequence (P11511 1-503)": "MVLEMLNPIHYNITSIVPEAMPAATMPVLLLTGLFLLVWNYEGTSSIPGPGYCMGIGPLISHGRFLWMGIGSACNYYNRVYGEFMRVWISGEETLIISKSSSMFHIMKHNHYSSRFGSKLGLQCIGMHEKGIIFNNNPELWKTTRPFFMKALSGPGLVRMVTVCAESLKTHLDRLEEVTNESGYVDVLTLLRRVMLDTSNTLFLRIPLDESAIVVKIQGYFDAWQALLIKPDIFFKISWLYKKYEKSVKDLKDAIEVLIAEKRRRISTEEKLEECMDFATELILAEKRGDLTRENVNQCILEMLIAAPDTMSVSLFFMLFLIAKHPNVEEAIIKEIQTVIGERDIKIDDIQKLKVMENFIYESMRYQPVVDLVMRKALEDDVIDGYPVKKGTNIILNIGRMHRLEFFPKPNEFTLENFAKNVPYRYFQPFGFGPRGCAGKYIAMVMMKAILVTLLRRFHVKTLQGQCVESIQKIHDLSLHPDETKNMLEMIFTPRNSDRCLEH", "test": "Aromatase activity, modified tritiated water assay in JEG-3 cells", "assay_type": "cell-based", "protocol": "Briefly, placental choriocarcinoma JEG-3 cells, known to have high aromatase activity, were grown to approximately 80% confluence in six-well culture plates. Once established, cells were treated with androst-4-ene-3,17-dione[1β-^3H] as aromatase substrate. Aromatase activity was measured in the absence and presence of inhibitors (Fig. 3).\nAromatase activity results were determined as a concentration of product formed per mg of protein per hour.\nAromatase activity was assayed using a modified tritiated water assay as previously reported.[12] JEG-3 cells were grown in 1 mL EMEM to approximately 80% confluence in six-well cell culture plates. Androst-4-ene-3,17-dione[1β-^3H] was dissolved in serum-free cell culture medium and added into each well. Aromatase activity was measured in the absence and presence of inhibitor (0.001–10 nM). After a 1 h incubation at 37 °C followed by a 5 min incubation on ice, 500 μL of culture medium was taken from each well. Medium was vortexed with 2% dextran-treated charcoal (Sigma-Aldrich) in PBS and centrifuged at 4000 rpm. The supernatant containing the product, [^3H] H2O, was quantified by scintillation counting. Cell protein concentrations were determined using Pierce BCA assay kit (Thermo Fisher Scientific). Aromatase activity results were determined as a concentration of product formed per mg of protein per hour (pmol mg^−1 h^−1)."}, "[1]": {"target": "T2, CYP2C19 (relative to CYP19A1) (Homo sapiens, UniProt P33261)", "T2 construct": "using a human liver microsomal assay with a CYP isoform specific probe substrate; tissue Cyprotex Discovery Limited; host or cells: human liver microsomes", "T2 sequence (P33261 whole entry, canonical isoform)": "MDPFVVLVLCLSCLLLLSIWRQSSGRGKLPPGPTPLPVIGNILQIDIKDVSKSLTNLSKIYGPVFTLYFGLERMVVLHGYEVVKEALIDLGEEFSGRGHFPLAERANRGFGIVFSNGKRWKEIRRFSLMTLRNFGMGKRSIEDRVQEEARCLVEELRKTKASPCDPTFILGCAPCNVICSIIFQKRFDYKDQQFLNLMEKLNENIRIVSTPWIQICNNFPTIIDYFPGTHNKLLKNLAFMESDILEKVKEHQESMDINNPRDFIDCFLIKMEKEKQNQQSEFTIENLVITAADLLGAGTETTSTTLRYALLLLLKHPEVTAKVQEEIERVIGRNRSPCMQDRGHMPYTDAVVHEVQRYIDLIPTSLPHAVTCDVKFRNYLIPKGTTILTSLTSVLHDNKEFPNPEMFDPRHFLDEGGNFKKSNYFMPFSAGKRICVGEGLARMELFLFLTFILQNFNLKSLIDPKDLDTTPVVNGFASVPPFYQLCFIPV", "test": "CYP panel inhibition, human liver microsomal assay (Cyprotex)", "assay_type": "in vitro ADME", "details": "human, human liver microsomes; ratio of CYP IC50 to CYP19A1 IC50; read-out: Selectivity CYP19A1 compared with CYP2C19"}, "CYP2C19 [2]": {"target": "T3, CYP2C19 (Homo sapiens, UniProt P33261)", "T3 construct": "using a human liver microsomal assay with a CYP isoform specific probe substrate; tissue Cyprotex Discovery Limited; host or cells: human liver microsomes", "T3 sequence (P33261 whole entry, canonical isoform)": "as above", "test": "CYP panel inhibition, human liver microsomal assay (Cyprotex)", "assay_type": "in vitro ADME", "details": "human liver microsomes, isoform specific probe substrate"}, "[3]": {"target": "T4, CYP1A2 (relative to CYP19A1) (Homo sapiens, UniProt P05177)", "T4 construct": "using a human liver microsomal assay with a CYP isoform specific probe substrate; tissue Cyprotex Discovery Limited; host or cells: human liver microsomes", "T4 sequence (P05177 1-516)": "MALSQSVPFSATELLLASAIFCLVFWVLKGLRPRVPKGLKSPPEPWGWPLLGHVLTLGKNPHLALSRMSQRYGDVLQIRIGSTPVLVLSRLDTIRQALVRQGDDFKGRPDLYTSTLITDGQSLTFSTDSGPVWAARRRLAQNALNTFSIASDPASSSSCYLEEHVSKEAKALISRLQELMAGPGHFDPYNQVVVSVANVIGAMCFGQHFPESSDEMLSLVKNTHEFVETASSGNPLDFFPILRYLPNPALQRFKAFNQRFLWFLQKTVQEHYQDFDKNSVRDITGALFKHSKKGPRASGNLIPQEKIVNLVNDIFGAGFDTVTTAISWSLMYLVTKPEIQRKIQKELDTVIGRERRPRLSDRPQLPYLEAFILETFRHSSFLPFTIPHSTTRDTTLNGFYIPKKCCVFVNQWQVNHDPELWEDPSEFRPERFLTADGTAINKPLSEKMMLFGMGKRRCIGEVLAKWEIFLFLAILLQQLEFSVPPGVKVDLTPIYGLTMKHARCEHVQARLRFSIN", "test": "CYP panel inhibition, human liver microsomal assay (Cyprotex)", "assay_type": "in vitro ADME", "details": "human, human liver microsomes; ratio of CYP IC50 to CYP19A1 IC50; read-out: Selectivity CYP19A1 compared with CYP1A2"}, "CYP1A2 [4]": {"target": "T5, CYP1A2 (Homo sapiens, UniProt P05177)", "T5 construct": "using a human liver microsomal assay with a CYP isoform specific probe substrate; tissue Cyprotex Discovery Limited; host or cells: human liver microsomes", "T5 sequence (P05177 1-516)": "T4 sequence (P05177 1-516)", "test": "CYP panel inhibition, human liver microsomal assay (Cyprotex)", "assay_type": "in vitro ADME", "details": "human liver microsomes, isoform specific probe substrate"}, "[5]": {"target": "T6, CYP3A4 (relative to CYP19A1) (Homo sapiens, UniProt P08684)", "T6 construct": "using a human liver microsomal assay with a CYP isoform specific probe substrate; tissue Cyprotex Discovery Limited; host or cells: human liver microsomes", "T6 sequence (P08684 whole entry, canonical isoform)": "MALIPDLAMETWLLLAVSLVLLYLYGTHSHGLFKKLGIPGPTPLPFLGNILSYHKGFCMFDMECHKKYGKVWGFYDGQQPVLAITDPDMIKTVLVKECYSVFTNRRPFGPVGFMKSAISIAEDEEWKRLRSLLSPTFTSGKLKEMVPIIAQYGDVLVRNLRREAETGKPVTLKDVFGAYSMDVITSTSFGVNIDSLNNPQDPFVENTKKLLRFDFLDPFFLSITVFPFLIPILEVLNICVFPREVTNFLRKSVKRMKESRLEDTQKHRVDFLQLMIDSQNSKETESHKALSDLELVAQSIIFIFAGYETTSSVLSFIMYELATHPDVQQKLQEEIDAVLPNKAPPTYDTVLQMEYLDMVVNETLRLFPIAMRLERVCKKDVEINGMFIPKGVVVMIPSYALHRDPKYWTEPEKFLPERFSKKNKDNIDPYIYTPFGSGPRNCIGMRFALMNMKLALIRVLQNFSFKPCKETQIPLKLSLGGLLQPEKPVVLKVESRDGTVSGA", "test": "CYP panel inhibition, human liver microsomal assay (Cyprotex)", "assay_type": "in vitro ADME", "details": "human, human liver microsomes; ratio of CYP IC50 to CYP19A1 IC50; read-out: Selectivity CYP19A1 compared with CYP3A4"}, "CYP3A4 [6]": {"target": "T7, CYP3A4 (Homo sapiens, UniProt P08684)", "T7 construct": "using a human liver microsomal assay with a CYP isoform specific probe substrate; tissue Cyprotex Discovery Limited; host or cells: human liver microsomes", "T7 sequence (P08684 whole entry, canonical isoform)": "as above", "test": "CYP panel inhibition, human liver microsomal assay (Cyprotex)", "assay_type": "in vitro ADME", "details": "human liver microsomes, isoform specific probe substrate"}, "CYP2D6": {"target": "CYP2D6 (Homo sapiens, UniProt P10635)", "sequence (P10635 whole entry, canonical isoform)": "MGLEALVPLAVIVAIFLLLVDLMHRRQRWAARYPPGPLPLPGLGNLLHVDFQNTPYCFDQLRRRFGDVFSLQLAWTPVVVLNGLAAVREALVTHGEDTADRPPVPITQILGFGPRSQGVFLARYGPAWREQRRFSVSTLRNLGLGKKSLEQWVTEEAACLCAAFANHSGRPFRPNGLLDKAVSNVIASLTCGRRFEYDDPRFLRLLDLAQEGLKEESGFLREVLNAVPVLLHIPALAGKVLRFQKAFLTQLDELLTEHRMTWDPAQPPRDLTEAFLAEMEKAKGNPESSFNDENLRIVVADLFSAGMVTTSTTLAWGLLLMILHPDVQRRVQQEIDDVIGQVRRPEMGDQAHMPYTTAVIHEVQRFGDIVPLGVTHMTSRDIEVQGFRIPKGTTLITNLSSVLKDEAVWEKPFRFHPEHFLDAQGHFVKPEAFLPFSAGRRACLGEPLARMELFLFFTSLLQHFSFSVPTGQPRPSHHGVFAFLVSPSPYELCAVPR", "test": "CYP panel inhibition, human liver microsomal assay (Cyprotex)", "details": "read-out: CYP2D6 IC50; human liver microsomes, isoform specific probe substrate"}, "CYP2C9 [7]": {"target": "T8, CYP2C9 (Homo sapiens, UniProt P11712)", "T8 construct": "tissue Cyprotex Discovery Limited; host or cells: human liver microsomes", "T8 sequence (P11712 whole entry, canonical isoform)": "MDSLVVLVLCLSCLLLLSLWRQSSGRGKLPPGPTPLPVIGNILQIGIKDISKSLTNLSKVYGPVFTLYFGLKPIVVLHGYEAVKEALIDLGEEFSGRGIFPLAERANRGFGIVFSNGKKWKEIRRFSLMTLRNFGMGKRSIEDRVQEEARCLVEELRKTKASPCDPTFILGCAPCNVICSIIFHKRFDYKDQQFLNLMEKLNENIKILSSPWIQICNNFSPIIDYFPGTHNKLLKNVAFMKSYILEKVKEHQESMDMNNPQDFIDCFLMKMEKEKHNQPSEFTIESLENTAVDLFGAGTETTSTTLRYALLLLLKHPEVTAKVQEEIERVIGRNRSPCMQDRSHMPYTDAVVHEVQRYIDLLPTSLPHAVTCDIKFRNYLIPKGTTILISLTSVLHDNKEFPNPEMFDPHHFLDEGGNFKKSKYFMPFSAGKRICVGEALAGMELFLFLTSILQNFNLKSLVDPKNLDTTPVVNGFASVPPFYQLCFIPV", "test": "CYP panel inhibition, human liver microsomal assay (Cyprotex)", "assay_type": "in vitro ADME", "details": "human liver microsomes, isoform specific probe substrate"}, "[8]": {"target": "T9, CYP2C9 (relative to CYP19A1) (Homo sapiens, UniProt P11712)", "T9 construct": "using a human liver microsomal assay with a CYP isoform specific probe substrate; tissue Cyprotex Discovery Limited; host or cells: human liver microsomes", "T9 sequence (P11712 whole entry, canonical isoform)": "as above", "test": "CYP panel inhibition, human liver microsomal assay (Cyprotex)", "assay_type": "in vitro ADME", "details": "human, human liver microsomes; ratio of CYP IC50 to CYP19A1 IC50; read-out: Selectivity CYP19A1 compared with CYP2C9"}, "[9]": {"target": "CYP2D6 (relative to CYP19A1) (Homo sapiens, UniProt P10635)", "sequence (P10635 whole entry)": "as the sequence (P10635 whole entry, canonical isoform) above", "test": "in vitro", "details": "Selectivity CYP19A1 compared with CYP2D6, ratio of CYP IC50 to CYP19A1 IC50"}, "CYP2A6": {"tested_on": "CYP2A6", "set-up": "method as in PMID 19198839, PMID 28977209", "details": "cited from earlier work"}, "CYP2C19 [10]": {"tested_on": "CYP2C19", "set-up": "method as in PMID 19198839, PMID 28977209", "details": "cited from earlier work"}, "CYP3A4 [11]": {"tested_on": "CYP3A4", "details": "cited from earlier work"}, "CYP2C9 [12]": {"tested_on": "CYP2C9", "details": "cited from earlier work"}, "CYP1A2 [13]": {"tested_on": "CYP1A2", "details": "cited from earlier work"}, "[14]": {"details": "heterocyclic nitrogen basicity; cited from earlier work"}, "[15]": {"details": "JEG-3 cells, 0.001–10 nM inhibitor, 1 h incubation, triplicates, read-out: CYP19A1 IC50"}}, "note": "Where two headings read alike, the source gives them in different places.", "data": [{"molecule": "COc1ccc2cc(C(O)(c3ccc(Br)cc3)c3cccnc3)oc2c1", "note": "(stereo not drawn) [Compound 4c, (4-Bromophenyl)(6-methoxybenzofuran-2-yl)(pyridin-3-yl)methanol]", "values": [{"measurement": "IC50", "setting": "Aromatase (CYP19A1); [15]", "result": 0.0004, "unit": "µM"}]}, {"molecule": "COc1ccc2cc(C(O)(c3cccnc3)c3ccc(Cl)cc3Cl)oc2c1", "note": "(stereo not drawn) [Compound 4d, (2′,4′-Dichlorophenyl)(6-methoxybenzofuran-2-yl)(pyridin-3-yl)methanol]", "values": [{"measurement": "IC50", "setting": "Aromatase (CYP19A1); [15]", "result": 0.0019, "unit": "µM"}]}, {"molecule": "CC#CCOc1ccc2cc(C(O)(c3ccc(F)cc3)c3cccnc3)oc2c1", "note": "(stereo not drawn) [Compound 10a, (6-(But-2-yn-1-yloxy)benzofuran-2-yl)(4-fluorophenyl)(pyridin-3-yl)methanol]", "values": [{"measurement": "IC50", "setting": "Aromatase (CYP19A1); [15]", "result": "~0.01", "unit": "µM"}]}, {"molecule": "CC#CCOc1ccc2cc(C(O)(c3ccc(Cl)cc3)c3cccnc3)oc2c1", "note": "(stereo not drawn) [Compound 10b, (6-(But-2-yn-1-yloxy)benzofuran-2-yl)(4-chlorophenyl)(pyridin-3-yl)methanol]", "values": [{"measurement": "IC50", "setting": "Aromatase (CYP19A1); [15]", "result": 0.00105, "unit": "µM"}]}, {"molecule": "CC#CCOc1ccc2cc(C(O)(c3ccc(Br)cc3)c3cccnc3)oc2c1", "note": "(stereo not drawn) [Compound 10c, (4-Bromophenyl)(6-(but-2-yn-1-yloxy)benzofuran-2-yl)(pyridin-3-yl)methanol]", "values": [{"measurement": "selectivity ratio", "setting": "[1]", "result": 892}, {"measurement": "IC50", "setting": "CYP2C19 [2]", "result": "740 ± 160", "unit": "nM"}, {"measurement": "selectivity ratio", "setting": "[3]", "result": "> 30000"}, {"measurement": "IC50", "setting": "CYP1A2 [4]", "result": "> 25", "unit": "µM"}, {"measurement": "selectivity ratio", "setting": "[5]", "result": 4070}, {"measurement": "IC50", "setting": "CYP3A4 [6]", "result": "3.38 ± 0.51", "unit": "µM"}, {"measurement": "IC50", "setting": "CYP2D6", "result": "> 25", "unit": "µM"}, {"measurement": "IC50", "setting": "CYP2C9 [7]", "result": "4.9 ± 0.94", "unit": "µM"}, {"measurement": "selectivity ratio", "setting": "[8]", "result": 5900}, {"measurement": "selectivity ratio", "setting": "[9]", "result": "> 30000"}, {"measurement": "IC50", "setting": "Aromatase (CYP19A1); CYP19A1 value restated in μM in CYP profile table, read-out: IC50, CYP isoform 19A1", "result": 0.00083, "unit": "µM"}, {"measurement": "IC50", "setting": "Aromatase (CYP19A1); [15]", "result": 0.00083, "unit": "µM"}]}, {"molecule": "CC#CCOc1ccc2cc(C(O)(c3cccnc3)c3ccc(Cl)cc3Cl)oc2c1", "note": "(stereo not drawn) [Compound 10d, (6-(But-2-yn-1-yloxy)benzofuran-2-yl)(2,4-dichlorophenyl)(pyridin-3-yl)methanol]", "values": [{"measurement": "IC50", "setting": "Aromatase (CYP19A1); [15]", "result": "> 0.01", "unit": "µM"}]}, {"molecule": "CCC#CCOc1ccc2cc(C(O)(c3ccc(F)cc3)c3cccnc3)oc2c1", "note": "(stereo not drawn) [Compound 11a, (4-Fluorophenyl)(6-(pent-2-yn-1-yloxy)benzofuran-2-yl)(pyridin-3-yl)methanol]", "values": [{"measurement": "IC50", "setting": "Aromatase (CYP19A1); [15]", "result": "~0.01", "unit": "µM"}]}, {"molecule": "CCC#CCOc1ccc2cc(C(O)(c3ccc(Cl)cc3)c3cccnc3)oc2c1", "note": "(stereo not drawn) [Compound 11b, (4-Chlorophenyl)(6-(pent-2-yn-1-yloxy)benzofuran-2-yl)(pyridin-3-yl)methanol]", "values": [{"measurement": "IC50", "setting": "Aromatase (CYP19A1); [15]", "result": 0.00092, "unit": "µM"}]}, {"molecule": "CCC#CCOc1ccc2cc(C(O)(c3ccc(Br)cc3)c3cccnc3)oc2c1", "note": "(stereo not drawn) [Compound 11c, (4-Bromophenyl)(6-(pent-2-yn-1-yloxy)benzofuran-2-yl)(pyridin-3-yl)methanol]", "values": [{"measurement": "IC50", "setting": "Aromatase (CYP19A1); [15]", "result": 0.0049, "unit": "µM"}]}, {"molecule": "CCC#CCOc1ccc2cc(C(O)(c3cccnc3)c3ccc(Cl)cc3Cl)oc2c1", "note": "(stereo not drawn) [Compound 11d, (2,4-Dichlorophenyl)(6-(pent-2-yn-1-yloxy)benzofuran-2-yl)(pyridin-3-yl)methanol]", "values": [{"measurement": "IC50", "setting": "Aromatase (CYP19A1); [15]", "result": "> 0.01", "unit": "µM"}]}, {"molecule": "N#Cc1ccc(C(c2ccc(C#N)cc2)n2cncn2)cc1", "note": "[Letrozole]", "values": [{"measurement": "inhibition of CYP2A6", "setting": "CYP2A6", "result": "significant competitive inhibition"}, {"measurement": "inhibition of CYP2C19", "setting": "CYP2C19 [10]", "result": "modest inhibition"}]}, {"molecule": "CC(C)(C#N)c1cc(Cn2cncn2)cc(C(C)(C)C#N)c1", "note": "[anastrozole]", "values": [{"measurement": "inhibition of CYP3A4", "setting": "CYP3A4 [11]", "result": "some inhibition"}, {"measurement": "inhibition of CYP2C9", "setting": "CYP2C9 [12]", "result": "some inhibition"}, {"measurement": "inhibition of CYP1A2", "setting": "CYP1A2 [13]", "result": "some inhibition"}]}, {"molecule": "c1nnn[nH]1", "note": "[tetrazole]", "values": [{"measurement": "pKa", "setting": "[14]", "result": 4.8}]}]}
